Where two headings read alike, the source gives them in different places.
How the values were obtained:
[1] = doses of up to 750 mg (~10 mg/kg), 25 healthy subjects, mean body weight 71 kg; cited from earlier work
[2] = PET-based dosimetry; cited from earlier work
LNCaP tumors = test: Example 1: planar scintigraphy of 125I-MIP-1095, PMPA injected 16 hours later; type: in vivo, BALB/c nude mice
Procedure: Mice bearing LNCaP tumors of 1.5 cm diameter were injected via the tail vein with 37 MBq of ^125I-MIP-1095 in 100 μl at a specific activity of >1,000 mCi/[…]. Mice were imaged at a baseline time of 16 hours post injection giving enough time for tracer clearance from the blood stream and kidney calices.

PSMA = conditions: simultaneous coinjection of 50 mg/kg PMPA; cited from earlier work
[3] = Example 3: serial 68Ga-MIP-1558 PET of the salivary region with saline or PMPA; type: in vivo; conditions: rats, PMPA 10 mg/kg
Procedure: (§1) MIP-1558 was evaluated after labeling with ^68Ga and imaging in an animal PET. […] Both tumor and kidney uptake was determined in a volume of interest (VOI).

LNCaP tumor = test: Example 3: 68Ga-MIP-1558 animal PET, PMPA after 1 hour baseline scan; type: in vivo, BALB/c nude mice; conditions: for kidney uptake SUVmax of 68Ga-MIP1558: PMPA 50 mg/kg; for mean tumor uptake SUVmax of 68Ga-MIP1558: after PMPA 50 mg/kg
Procedure: as §1

[4] = groups 3, 4 and 5, 0.05, 0.15 and 0.5 mg/kg
[5] = group 2, PMPA 0.5 mg/kg IV 16 hours post tracer

Procedure for LNCaP xenografts: Blood and tissues were collected 18 hours after intravenous injection of ^125I-MIP-1095 (2 hours after displacing agent injections). Gamma-counter readouts were obtained for each sample and expressed as percent injected dose per gram of tissue using gamma-counter readout of the dosing solution as a reference.
The dosing solution was prepared fresh the day of administration.
Cold MIP-1095 was stored protected from light at −80° C. until use. The compound was formulated in a vehicle of sterile saline. For dosing of the 0.50 mg/kg group, the cold MIP-1095 was placed into a sterile vial and the appropriate amount of saline was added and mixed well by vortexing to form a clear solution with a pH value of 6.96. Dosing solutions for the 0.15 mg/kg and 0.05 mg/kg groups were prepared by direct (not serial) dilution of the dosing solution from the 0.5 mg/kg group with complete vehicle. The dosing solutions were prepared fresh the day of administration.
For dosing, the stock solution (colorless) was thawed in a 37° C. water bath and diluted 1:1 with sterile saline for a fixed 0.1 mCi/ml solution for dosing.
The pre-implantation cell viability was 97%. […] The cell suspension was maintained on wet ice during implantation. Following implantation, an aliquot of the remaining cells was diluted with a trypan blue solution and counted to determine the post-implantation cell viability (96%).
Test animals were implanted subcutaneously, high in the axilla (just under the fore limb) on Day 0 with 5.0E+06 cells in 0.2 ml of 50% serum-free medium:50% Matrigel® using a 27-gauge needle and syringe.
All mice were sorted into study groups based on caliper measurement estimation of tumor burden. The mice were distributed to ensure that the mean tumor burden for all groups was within 10% of the overall mean tumor burden for the study population. Treatment began on Day 25. Mice were administered test agent via intravenous injections. The mice were administered a fixed volume injection of 100 μl (approximately 4 ml/kg) via the tail vein, using a 28-gauge needle and insulin syringe. A fresh needle and syringe was used for each mouse.
Group 1—^125I-MIP-1095+Saline, 0.4 mCi/kg (0.005 mg/kg)+100 μl fixed volume, IV+IV, “Control”; test article at 0 hours, saline 16 hours post test article.

## O=C(O)CC[C@H](NC(=O)N[C@@H](CCCCNC(=O)Nc1ccc(I)cc1)C(=O)O)C(=O)O [cold MIP-1095]
LNCaP xenografts; group 4 (0.15 mg/kg)
  exposure in other organs: little changed
  reduction of LNCaP tumors exposure compared to negative control: 1.2 fold
  reduction of kidney exposure compared to negative control: 5 fold
LNCaP xenografts; [4]
  125I-MIP-1095 kidney exposure: dose-dependently reduced
  LNCaP tumors exposure: dose-dependent decrease
  liver, stomach, large and small intestines exposure: dose-dependent increase
LNCaP xenografts; highest dose (0.5 mg/kg)
  reduction in kidney exposure compared with positive control: equivalent to the one observed for positive control

## O=C(O)CCC(CCCS)C(=O)O (stereo not drawn) [2-MPPA, 2-(3-mercaptopropyl)pentanedioic acid]
[1]
  safety and tolerability: safe and generally well tolerated

## O=C(O)CC[C@H](NC(=O)N[C@@H](CCCCNC(=O)Nc1ccc([123I])cc1)C(=O)O)C(=O)O [125I-MIP-1095]
LNCaP xenografts; male, Taconic Nude (CrTac:NCr-Foxn1nu), mouse, in vivo, 18 h
  exposure in all other tissues and organs (including salivary glands): less than 1 % of ID/g
LNCaP xenografts; mouse, in vivo, iv
  exposure in LNCaP tumors relative to other tissues: highest exposure

## O=C(O)CC[C@H](NC(=O)N[C@@H](CCC(=O)N[C@@H](CCCCN(Cc1nccn1CC(=O)N(CC(=O)O)CC(=O)O)Cc1nccn1CC(=O)N(CC(=O)O)CC(=O)O)C(=O)O)C(=O)O)C(=O)O [MIP-1404]
LNCaP; mouse, in vivo
  washout from the kidneys without intervention: fast washout

## O=C(O)CC[C@H](NC(=O)N[C@@H](CCCCNC(=O)Nc1ccc([123I])cc1)C(=O)O)C(=O)O [124I-MIP1095]
[2]
  off-target radiation dose, kidneys: 1.4 mSv/MBq
  off-target radiation dose, liver: 1.7 mSv/MBq
  off-target radiation dose, salivary glands: 3.8 mSv/MBq
  radiation dose, red marrow: 0.37 mSv/MBq

## O=C(O)CCC(CP(=O)(O)O)C(=O)O (stereo not drawn) [PMPA, 2-(phosphonomethyl)pentanedioic acid]
LNCaP; PMPA 50 mg/kg
  difference in MIP-1404 tumor uptake vs controls: not significant
LNCaP; PMPA 50 mg/kg after baseline scan, at 2 and 4 hours
  washout of MIP-1404 from kidney vs controls: significantly (p<0.01) enhanced
LNCaP tumors; 2 hours after PMPA 0.2 mg/kg
  residual tumor uptake of 125I-MIP-1095, % of 16 hour baseline: 98%
LNCaP tumors; 2 hours after PMPA 1 mg/kg
  residual tumor uptake of 125I-MIP-1095, % of 16 hour baseline: 93%
LNCaP tumors; 2 hours after PMPA 10 mg/kg
  residual tumor uptake of 125I-MIP-1095, % of 16 hour baseline: 77%
LNCaP tumors; 2 hours after PMPA 50 mg/kg
  residual tumor uptake of 125I-MIP-1095, % of 16 hour baseline: 75%
LNCaP tumors; PMPA 0.2 mg/kg
  decrease in tumor uptake: < 5%
LNCaP tumors; PMPA 0.2 mg/kg (lower dose)
  renal displacement of tracer: only sub-totally displaced
LNCaP tumors; PMPA 0.2 mg/kg, 16 hours after tracer
  displacement of 125I-MIP-1095 from the kidneys: high significant (p<0.01) displacement
LNCaP tumors; PMPA 1.0 mg/kg
  effect on tumor uptake: < 10%
  renal displacement of tracer: near total renal displacement
LNCaP tumors; PMPA 1 mg/kg, p<0.01
  kidney washout of 125I-MIP-1095 vs 0.2 mg/kg dose: even higher kidney washout
LNCaP tumors; PMPA 16 hours after MIP-1095, all PMPA doses (0.2-50 mg/kg)
  displacement of renal activity of 125I-MIP-1095: rapid and quantitative relevant displacement
LNCaP tumors; PMPA doses greater than 1 mg/kg (10, 50 mg/kg)
  kidney-protective effect vs 1 mg/kg: did not improve the kidney-protective effect
PSMA
  blocking of radiolabeled MIP-1095 binding sites in tumor and kidneys: complete blocking
PMPA 1 mg/kg, 2 hours
  residual kidney uptake of MIP-1404, % of baseline: 13%
PMPA 1 mg/kg, 4 hours
  residual kidney uptake of MIP-1404, % of baseline: 9%
PMPA 10 mg/kg, 2 hours
  residual kidney uptake of MIP-1404, % of baseline: 15%
PMPA 10 mg/kg, 4 hours
  residual kidney uptake of MIP-1404, % of baseline: 10%
PMPA 50 mg/kg, 2 hours
  residual kidney uptake of MIP-1404, % of baseline: 11%
PMPA 50 mg/kg, 4 hours
  residual kidney uptake of MIP-1404, % of baseline: 7%
[3]
  change of salivary region uptake due to the PMPA intervention: there does not appear to be a measurable change
[3]; 1 hour post injection
  salivary region SUVmax of 68Ga-MIP-1558, mean: 0.82
[3]; 3 hours post injection
  salivary region SUVmax of 68Ga-MIP-1558, mean: 0.23
LNCaP xenografts; [5]
  exposure of 125I-MIP-1095 in LNCaP tumors and all other organs and tissues: little changed
  exposure of 125I-MIP-1095 in the kidneys: greatly reduced
LNCaP tumor; 2 hours post injection
  kidney uptake SUVmax of 68Ga-MIP1558: 1.87
  mean tumor uptake SUVmax of 68Ga-MIP1558: 0.40
LNCaP tumor; 3 hours post injection
  kidney uptake SUVmax of 68Ga-MIP1558: 1.77
  mean tumor uptake SUVmax of 68Ga-MIP1558: 0.39
